US12655174B2, “Adenosine A3 receptor agonists, preparation methods and uses thereof” (ZHEJIANG VIMGREEN PHARMACEUTICALS, LTD., priority 2020, dated 2026)

Key:
[1] = target: T1, ADORA3 receptor (Homo sapiens, UniProt P0DMS8); test: Agonistic effect on adenosine A3 receptor by FLIPR assay (calcium flux assay); assay type: cell-based; details: agonist mode
T1 sequence (P0DMS8 1-318): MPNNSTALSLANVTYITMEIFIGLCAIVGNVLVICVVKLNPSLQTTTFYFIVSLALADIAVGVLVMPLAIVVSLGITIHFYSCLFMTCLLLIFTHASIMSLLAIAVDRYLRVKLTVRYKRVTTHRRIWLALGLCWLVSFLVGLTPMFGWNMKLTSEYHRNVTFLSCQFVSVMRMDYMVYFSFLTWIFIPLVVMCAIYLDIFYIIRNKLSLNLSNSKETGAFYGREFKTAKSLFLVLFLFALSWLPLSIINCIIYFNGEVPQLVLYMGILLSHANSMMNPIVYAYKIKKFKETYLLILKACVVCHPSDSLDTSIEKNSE
Experimental: Example 27: Agonistic Effect of Compound on Adenosine A3 Receptor by FLIPR Assay (Calcium Flux Assay)
First Day: Cell Inoculation
• 1) With regard to ADORA3 receptor, cultured cells were used for inoculation: the culture medium was aspirated and the cells were washed twice with 10 mL of DPBS. 2 mL of 0.05% EDTA-trypsin was added and the cells were incubated at 37° C. for 1 minute. Then 10 mL of the culture medium was added to stop the digestion and the cell suspension was transferred to a 50-mL tapered tube. • 2) The 50-mL tapered tube containing the various cells was centrifuged at 300 g for 5 minutes. • 3) A supernatant was aspirated and no cells should be aspirated. • 4) The cell precipitate was resuspended in 6-8 mL of the culture medium, and then 0.5 mL of the cells were taken out for cell counting by using a Vi-cell XR cell viability analyzer. • 5) The cell suspension was diluted to 1×10^6 cells/mL (20 μL of 20,000 cells per well) in the culture medium and the cells were inoculated into a cell plate (384-well Poly-D-lysine protein-coated plate, Greiner-781946). • 6) The plate was placed in a 37° C./5% CO2 incubator for 16-20 hours. Second Day: • 1) Preparation of 2×Fluo-4 Direct™ uptaking dye • a. Preparation of probenecid solution • 1 mL of FLIPR assay buffer was added to 77 mg of probenecid (provided by Fluo-4 Direct™ calcium assay kit) to be prepared into 250 mM of a probenecid solution. The fresh probenecid solution was used daily. • b. 2×(8 μM) Fluo-4 Direct™ loading dye (per 10 mL)
A vial of the Fluo-4 Direct™ crystal was thawed and then 10 mL of the FLTPR analytical buffer was added to the vial. Then 0.2 mL of 250 mM of a probe solution was added to every 10 mL Fluo-4 Direct™ crystal to a final assay concentration of 2.5 mM. The solution was vortexed and stood for >5 min at a dark place. 2×Fluo-4 Direct™ uptaking dye was freshly prepared daily. • 2) Compound preparation • a. Preparation of compound plate: all reference and test compounds were serially diluted 4-fold in 10 points by using an Echo liquid processor and then 900 nL of the diluted compounds were transferred to a compound plate. • b. 30 μL FLIPR analytical buffer was added to the compound plate and the plate was centrifuged at 300 g for 1 minute. • 3) FLIPR analysis • a. With regard to ADORA3 receptor: firstly, the cell plate was taken out from a culture box. The culture medium was then aspirated and 20 μL of the FLIPR analytical buffer was added. The cell plate was placed in an incubator for 45 minutes and at a room temperature for 15 minutes. • b. To run an experimental solution on […], 10 μL of the FLIPR analytical buffer was transferred from the compound plate to a cell plate, and then the fluorescent signal was read. Then 10 μL of a compound solution was transferred from the compound plate to the cell plate and the fluorescence signal was read. “Max−min” was calculated from Reader 91 to an allowed maximum value. • c. With regard to agonist: activation %=(RLU−LC)/(HC−LC)*100, • wherein RLU=relative light unit, allowed maximum signal was 91; HC=average signal of high concentration agonist; and LC=mean signal of DMSO well. • d. Data were fitted to a model “log (agonist) versus response-variable slope” by using GraphPad Prism 5 to determine an EC50 value. • e. […] 2. Test Result

[2] = Pharmacokinetic test of compound in SD rat; assay type: in vivo; details: SD rats, intragastric administration (IG), cassette dosing
Experimental: Example 28: Pharmacokinetic Test of Compound in SD Rat
The animal species used in this experiment were SD rats. There were 3 animals per group. The rats were dosed in cassette format, i.e., multiple (1-6) different compounds were dosed simultaneously to the same group of the SD rats. The vehicle used for the drug was 5% DMSO+5% Solutl+90% ([…] methylcellulose M450), and the administration route was intragastric administration (IG).

[3] = target: T2, ADORA3 receptor (CHO cells stably expressing ADORA3 receptor) (Homo sapiens, UniProt P0DMS8); test: Effect of compound on intracellular cAMP level by adenosine A3 receptor agonism; assay type: cell-based; details: forskolin-stimulated
T2 construct: expressed in transfected cells
T2 sequence (P0DMS8 1-318): T1 sequence (P0DMS8 1-318)
Experimental: Example 26: Test the Effect of Compound on Intracellular cAMP Level by Adenosine A3 Receptor Agonism
• 1) 1×HBSS with Ca2+ and Mg2+ (14 mL), 1 M HEPES (75 μL), a 7.5% (w/v) BSA stabilizer (pH 7.4, 200 μL), and 20 mM rolipram (7.5 μL) were respectively prepared as cAMP assay buffer. • 2) Preparation of compound source plate • a. […] A 10 mM stock solution was subjected to a 3-fold serial dilution by 100% (v/v) DMSO to prepare 10 doses of the test substance. • c. 1 mM of Forskolin was prepared by 100% (v/v) DMSO. • 3) Preparation of test plate • a. Prior to the assay, CHO cells stably expressing ADORA3 receptor were harvested and the cells were counted by using a Countess cell counter. […] The cells were seeded at a density of 2,000 cells/well in a 384-well plate. • 4) 10 nL/well of the serially diluted compound and 10 nL/well of 1 mM of forskolin were transferred to each well with ADORA3 receptor expressing cells by using Echo550. • 5) A cell plate was centrifuged at 1,000 rpm for 1 minute and then stirred at 600 rpm for 2 minutes. The plate was incubated at 37° C. • 6) An Eu-cAMP tracer working solution and an Ulight-anti-cAMP working solution were prepared according to the following table.
• 7) 5 μl/well of the Eu-cAMP tracer working solution and 5 μl/well of the Ulight-anti-cAMP working solution were added to each well of the plate. […] 2. Data Analysis • 1) An activation percentage was calculated by using the following formula:
[formula] • % Activation: activation percentage • Ratiocpd: ratio of emissivity of test compound • RatioLow control: ratio of low emissivity • RatioHigh control: ratio of high emissivity • 2) EC50 was calculated by an XLfit using the Hill equation to fit the activity percentage and a log of a compound concentration. 3. Test Result

EC50 [1] [nM]	AUC_D [2] [kg·ng·h/mL/mg]	EC50 [3] [nM]	Structure (SMILES)
12.9	2349.41	–	CNC(=O)[C@H]1OC(n2cnc3c(NCc4cc(C)cc(C)c4)nc(-c4cccnc4)nc32)[C@H](O)[C@@H]1O (stereo in doubt) [compound 297, (2S,3S,4R,5S)-5-(6-((3,5-dimethylbenzyl)amino)-2-(pyridin-3-yl)-9H-purin-9-yl)-3,4-dihydroxyl-N-methyltetrahydrofuran-2-carboxamide]
37	4423.94	–	CNC(=O)[C@H]1OC(n2cnc3c(NCc4cc(C)cc(C)c4)nc(-c4cncc(OC)c4)nc32)[C@H](O)[C@@H]1O (stereo in doubt) [compound 298, (2S,3S,4R,5S)-5-(6-((3,5-dimethylbenzyl)amino)-2-(5-methoxypyridin-3-yl)-9H-purin-9-yl)-3,4-dihydroxyl-N-methyltetrahydrofuran-2-carboxamide]
12.7	–	–	CCNC(=O)[C@H]1O[C@@H](n2cnc3c(NC)nc(-c4cccnc4)nc32)[C@H](O)[C@@H]1O [compound 42, (2S,3S,4R,5R)-N-ethyl-3,4-dihydroxyl-5-(6-(methylamino)-2-(pyridin-3-yl)-9H-purin-9-yl)-tetrahydrofuran-2-formamide]
11.4	87.99	–	CCNC(=O)[C@H]1O[C@@H](n2cnc3c(NC)nc(-c4cncc(F)c4)nc32)[C@H](O)[C@@H]1O [compound 43, (2S,3S,4R,5R)-N-ethyl-5-(2-(5-fluoropyridin-3-yl)-6-(methylamino)-9H-purin-9-yl)-3,4-dihydroxyl-tetrahydrofuran-2-formamide]
20.6	75.08	–	CCNC(=O)[C@H]1O[C@@H](n2cnc3c(NC)nc(-c4cncc(C)c4)nc32)[C@H](O)[C@@H]1O [compound 72, (2S,3S,4R,5R)-N-ethyl-3,4-dihydroxyl-5-(6-(methylamino)-2-(5-methylpyridin-3-yl)-9H-purin-9-yl)tetrahydrofuran-2-carboxamide]
29.6	–	–	CCNC(=O)[C@H]1O[C@@H](n2cnc3c(NC)nc(-c4cncc(OC)c4)nc32)[C@H](O)[C@@H]1O [compound 73, (2S,3S,4R,5R)-N-ethyl-3,4-dihydroxyl-5-(2-(5-methoxypyridin-3-yl)-6-(methylamino)-9H-purin-9-yl)tetrahydrofuran-2-carboxamide]
25.2	–	–	CCNC(=O)[C@H]1O[C@@H](n2cnc3c(NC)nc(-c4cncc(Cl)c4)nc32)[C@H](O)[C@@H]1O [compound 90, (2S,3S,4R,5R)-5-(2-(5-chloropyridin-3-yl)-6-(methylamino)-9H-purin-9-yl)-N-ethyl-3,4-dihydroxyltetrahydrofuran-2-carboxamide]
–	703.00	9.51	[2H]C([2H])([2H])NC(=O)[C@H]1O[C@@H](n2cnc3c(NCc4cccs4)nc(-c4cncc(Cl)c4)nc32)[C@H](O)[C@@H]1O [compound 254, (2S,3S,4R,5R)-5-(2-(5-chloropyridin-3-yl)-6-((thiophen-2-ylmethyl)amino)-9H-purin-9-yl)-3,4-dihydroxyl-N-(methyl-d3)tetrahydrofuran-2-carboxamide]
–	406.00	8.58	[2H]C([2H])([2H])NC(=O)[C@H]1O[C@@H](n2cnc3c(NCc4ccsc4)nc(-c4cncc(Cl)c4)nc32)[C@H](O)[C@@H]1O [compound 255, (2S,3S,4R,5R)-5-(2-(5-chloropyridin-3-yl)-6-((thiophen-3-ylmethyl)amino)-9H-purin-9-yl)-3,4-dihydroxyl-N-(methyl-d3)tetrahydrofuran-2-carboxamide]
–	8902.66	2.85	CNC(=O)[C@H]1O[C@@H](n2cnc3c(NCc4cccc(C)c4)nc(-c4cncc(C)c4)nc32)[C@H](O)[C@@H]1O [compound 284, (2S,3S,4R,5R)-5-(6-(3-methylbenzylamino)-2-(5-methylpyridin-3-yl)-9H-purin-9-yl)-3,4-dihydroxyl-N-methyl-tetrahydrofuran-2-formamide]
–	106.30	6.81	CNC(=O)[C@H]1O[C@@H](n2cnc3c(NCc4cccc(C(F)(F)F)n4)nc(-c4cncc(F)c4)nc32)[C@H](O)[C@@H]1O [compound 289, (2S,3S,4R,5R)-5-(2-(5-fluoropyridin-3-yl)-6-(((6-(trifluoromethyl)pyridin-2-yl)methyl)amino)-9H-purin-9-yl)-3,4-dihydroxyl-N-methyltetrahydrofuran-2-carboxamide]
–	216.77	12.4	CNC(=O)[C@H]1O[C@@H](n2cnc3c(NCc4cccc(C(F)(F)F)n4)nc(-c4cncc(Cl)c4)nc32)[C@H](O)[C@@H]1O [compound 290, (2S,3S,4R,5R)-5-(2-(5-chloropyridin-3-yl)-6-(((6-(trifluoromethyl)pyridin-2-yl)methyl)amino)-9H-purin-9-yl)-3,4-dihydroxyl-N-methyltetrahydrofuran-2-carboxamide]
–	639.00	2.62	CNC(=O)[C@H]1O[C@@H](n2cnc3c(NCc4cc(C(F)(F)F)ccn4)nc(-c4cncc(Cl)c4)nc32)[C@H](O)[C@@H]1O [compound 294, (2S,3S,4R,5R)-5-(2-(5-chloropyridin-3-yl)-6-(((4-(trifluoromethyl)pyridin-2-yl)methyl)amino)-9H-purin-9-yl)-3,4-dihydroxyl-N-methyltetrahydrofuran-2-carboxamide]
–	729.20	2.13	CNC(=O)[C@H]1O[C@H](n2cnc3c(NCc4cccc(C)c4)nc(-c4cncc(OC)c4)nc32)[C@H](O)[C@@H]1O [compound 300]
